# In patent US8569327B2, “Phenanthroindolizidine derivative and NFκB inhibitor containing same as active ingredient” (Kabushiki Kaisha Yakult Honsha, priority 2008, dated 2013):
# How the values were obtained:
# NFκB = test: Inhibitory action on the NFκB activity, luciferase assay in SW480/NRE-Luc cells; assay type: cell-based, human; details: for IC50: Homo sapiens, SW480, read-out: NFκB inhibitory activity IC50; for NFκB inhibitory activity IC50: SW480/NRE-Luc cells, compound 1 h then 50 ng/mL TNFα 4 h, luciferase
# Source text: (§1) The action of the phenanthroindolizidine alkaloid compound of the present invention on the NFκB activity was studied using a luciferase assay. Human colon cancer SW480 cells were transfected with pNFκB-Luc Plasmid (Stratagene), which is a reporter vector in which a five-time tandem repeat of the NFκB responsive element (NRE) is integrated into the upstream of the luciferase gene, using Lipofectamine 2000 (Invitrogen Corporation) in accordance with the attached operating procedure. Subsequently, the cells were cultured in an RPMI1640 medium containing 10% FBS, 100 U/mL penicillin, 100 μg/mL streptomycin, and 0.5 mg/mL G418 to produce SW480 cells having the luciferase gene, the expression of which is regulated by NRE, stably introduced therein (SW480/NRE-Luc cells). Likewise, SW480 cells were transfected with pGL3-Control Vector (Promega Corporation), which is a reporter vector in which the SV40 promoter is integrated into the upstream of the luciferase gene, to produce SW480 cells having the luciferase gene, the expression of which is regulated by the SV40 promoter, stably introduced therein (SW480/SV40-Luc cells). The SW480/NRE-Luc cells or the SW480/SV40-Luc cells were suspended in an RPMI1640 medium containing 10% FBS, 100 U/mL penicillin, and 100 μg/mL streptomycin (10% FBS/RPMI1640), and then seeded in a 96-well microplate, followed by culturing under conditions of 5% CO2 and at 37° C. (5000 cells/well). After an overnight culture, the compound of the present invention was added, followed by culturing for one hour. Further, 50 ng/mL TNFα (Sigma-Aldrich Corporation) was added, followed by culturing for four hours. Subsequently, a Steady-Glo Luciferase Assay reagent (Promega Corporation) was added, and the luminescent intensity was detected by SpectraMax M5e (Molecular Devices, Inc.) to measure the intracellular luciferase activity. It is to be noted that the action of the compound of the present invention on the NFκB activity or the SV40 promoter activity was shown as IC50 values (the concentration of a test compound needed for 50% inhibition of the induction of the luciferase expression).
# SV40 promoter = SV40 promoter activity, luciferase assay in SW480/SV40-Luc cells; assay type: cell-based, human; details: for IC50: Homo sapiens, SW480, read-out: SV40 promoter inhibitory activity IC50; for SV40 promoter inhibitory activity IC50: SW480/SV40-Luc cells, luciferase
# Source text: as §1
# [1] = tested on: human colon cancer SW480 cells; test: Inhibitory action on the proliferation of SW480 cells; assay type: cell-based; details: 48 hours, TetraColor ONE; for IC50: Homo sapiens, SW480
# Experimental: (§2) The action of the phenanthroindolizidine alkaloid compound of the present invention on the proliferation of human colon cancer SW480 cells, HT-29 cells, and human non-small cell lung cancer A549 cells was studied. The SW480 cells were suspended in a 10% FBS/RPMI1640 and then seeded in a 96-well microplate, followed by culturing in 5% CO2 at 37° C. (2000 cells/well). The A549 cells and the HT-29 cells were each suspended in a DMEM medium containing 10% FBS, 100 U/mL penicillin, and 100 μg/mL streptomycin (10% FBS/DMEM) and a DMEM F-12 HAM medium containing 10% FBS, 100 U/mL penicillin, and 100 μg/mL streptomycin (10% FBS/DMEM F12 HAM), and then seeded in 96-well microplates, followed by culturing in 5% CO2 at 37° C. (1000 cells/well). After an overnight culture, the compound of the present invention was added, followed by further culturing for 48 hours (SW480 cells) and 96 hours (A549 cells and HT-29 cells). After culturing, the number of viable cells was counted using TetraColor ONE (Seikagaku Corporation) in accordance with the attached operating procedure. The results were expressed as the concentration of a test compound needed for 50% inhibition of the proliferation of the cells (IC50).
# [2] = tested on: human colon cancer HT-29 cells; test: Inhibitory action on the proliferation of HT-29 cells; assay type: cell-based; details: 96 hours, TetraColor ONE; for IC50: Homo sapiens, HT-29
# Experimental: as §2
# [3] = tested on: human non-small cell lung cancer A549 cells; test: Inhibitory action on the proliferation of A549 cells; assay type: cell-based; details: 96 hours, TetraColor ONE; for IC50: Homo sapiens, A549
# Experimental: as §2
Structure (SMILES),IC50 (NFκB),IC50 (SV40 promoter),IC50 [1],IC50 [2],IC50 [3],NFκB inhibitory activity IC50 (NFκB),SV40 promoter inhibitory activity IC50 (SV40 promoter),SW480 proliferation inhibitory action IC50 [1],HT-29 proliferation inhibitory action IC50 [2],A549 proliferation inhibitory action IC50 [3]
"COc1cc2c3c(c4ccc(NC(=O)OCc5ccccc5)cc4c2cc1OC)[C@H](O)[C@@H]1CCCN1C3.Cl [Compound 26, ((12aS,13S)-13-hydroxy-6,7-dimethoxy-9,10,11,12,12a,13-hexahydro-9a-aza-cyclopenta[b]triphenylene-3-yl)-carbamic acid benzyl ester hydrochloride]",19.9 ng/mL,> 1000 ng/mL,37.3 ng/mL,6.7 ng/mL,8.8 ng/mL,–,–,–,–,–
"COc1cc2c3c(c4ccc(OC(=O)C(C)C)cc4c2cc1OC)[C@H](O)[C@@H]1CCCN1C3.Cl [Compound 9, isobutyric acid(12aS,13S)-13-hydroxy-6,7-dimethoxy-9,10,11,12,12a,13-hexahydro-9a-aza-cyclopenta[b]triphenylene-3-yl ester hydrochloride]",–,–,–,–,–,0.26 ng/mL,>100 ng/mL,0.36 ng/mL,0.38 ng/mL,0.57 ng/mL
"COc1cc2c3c(c4ccc(OC(=O)c5ccsc5)cc4c2cc1OC)[C@H](O)[C@@H]1CCCN1C3.Cl [Compound 23, thiophene-3-carboxylic acid(12aS,13S)-13-hydroxy-6,7-dimethoxy-9,10,11,12,12a,13-hexahydro-9a-aza-cyclopenta[b]triphenylene-3-yl ester hydrochloride]",–,–,–,–,–,4.1 ng/mL,>100 ng/mL,3.1 ng/mL,1.4 ng/mL,0.76 ng/mL
"COc1cc2c3c(c4ccc(NC(=O)OCC(C)C)cc4c2cc1OC)C[C@@H]1CCCN1C3.CS(=O)(=O)O [Compound 55, ((S)-6,7-dimethoxy-9,10,11,12,12a,13-hexahydro-9a-aza-cyclopenta[b]triphenylene-3-yl)-carbamic acid isobutyl ester methanesulfonate]",0.5 ng/mL,> 10000 ng/mL,0.76 ng/mL,46 ng/mL,33.7 ng/mL,–,–,–,–,–
"CCCCC(=O)Oc1ccc2c3c(c4cc(OC)c(OC)cc4c2c1)CN1CCC[C@H]1C3.CS(=O)(=O)O [Compound 49, pentanoic acid(S)-6,7-dimethoxy-9,10,11,12,12a,13-hexahydro-9a-aza-cyclopenta[b]triphenylene-3-yl ester methanesulfonate]",–,–,–,–,–,0.41 ng/mL,>1000 ng/mL,0.62 ng/mL,2.0 ng/mL,1.1 ng/mL
"COc1cc2c3c(c4ccc(OC(=O)C(C)(C)C)cc4c2cc1OC)C[C@@H]1CCCN1C3.Cl [Compound 35, 2,2-dimethyl-propionic acid(S)-6,7-dimethoxy-9,10,11,12,12a,13-hexahydro-9a-aza-cyclopenta[b]triphenylene-3-yl ester hydrochloride]",–,–,–,–,–,2.4 ng/mL,>1000 ng/mL,4.1 ng/mL,3.7 ng/mL,1.2 ng/mL
"COc1cc2c3c(c4ccc(OC(=O)c5cccnc5)cc4c2cc1OC)C[C@@H]1CCCN1C3.CS(=O)(=O)O [Compound 47, nicotinic acid(S)-6,7-dimethoxy-9,10,11,12,12a,13-hexahydro-9a-aza-cyclopenta[b]triphenylene-3-yl ester methanesulfonate]",–,–,–,–,–,0.42 ng/mL,>1000 ng/mL,0.38 ng/mL,1.9 ng/mL,1.1 ng/mL
"COc1cc2c3c(c4ccc(OC(=O)c5ccoc5)cc4c2cc1OC)[C@H](O)[C@@H]1CCCN1C3.Cl [Compound 22, furan-3-carboxylic acid(12aS,13S)-13-hydroxy-6,7-dimethoxy-9,10,11,12,12a,13-hexahydro-9a-aza-cyclopenta[b]triphenylene-3-yl ester hydrochloride]",–,–,–,–,–,1.7 ng/mL,>1000 ng/mL,2.8 ng/mL,1.9 ng/mL,1.1 ng/mL
"COc1cc2c3c(c4ccc(OC(=O)c5ccco5)cc4c2cc1OC)C[C@@H]1CCCN1C3.CS(=O)(=O)O [Compound 52, furan-2-carboxylic acid(S)-6,7-dimethoxy-9,10,11,12,12a,13-hexahydro-9a-aza-cyclopenta[b]triphenylene-3-yl ester methanesulfonate]",–,–,–,–,–,0.61 ng/mL,>1000 ng/mL,0.51 ng/mL,2.0 ng/mL,1.3 ng/mL
"COc1cc2c3c(c4ccc(NC(=O)OCC(C)C)cc4c2cc1OC)C[C@@H]1CCCN1C3.Cl [Compound 42, ((S)-6,7-dimethoxy-9,10,11,12,12a,13-hexahydro-9a-aza-cyclopenta[b]triphenylene-3-yl)-carbamic acid isobutyl ester hydrochloride]",117 ng/mL,> 10000 ng/mL,96.3 ng/mL,19 ng/mL,27 ng/mL,–,–,–,–,–
"COc1cc2c3c(c4ccc(OC(=O)C(C)(C)C)cc4c2cc1OC)C[C@@H]1CCCN1C3.CS(=O)(=O)O [Compound 48, 2,2-dimethyl-propionic acid(S)-6,7-dimethoxy-9,10,11,12,12a,13-hexahydro-9a-aza-cyclopenta[b]triphenylene-3-yl ester methanesulfonate]",–,–,–,–,–,0.40 ng/mL,>1000 ng/mL,0.58 ng/mL,2.0 ng/mL,1.2 ng/mL
"COc1cc2c3c(c4cccc(O)c4c2cc1OC)[C@H](O)[C@@H]1CCCN1C3.Cl [Compound 30, (12aS,13S)-6,7-dimethoxy-9,10,11,12,12a,13-hexahydro-9a-aza-cyclopenta[b]triphenylene-4,13-diol hydrochloride]",0.017 ng/mL,> 1000 ng/mL,0.45 ng/mL,30.5 ng/mL,1.2 ng/mL,–,–,–,–,–
